# Measurements as given in patent publication US10350204B2, “Methods for treating cognitive deficits associated with fragile X syndrome” (Wisconsin Alumni Research Foundation, priority 2015, dated 2019).
# Key:
# [1] = tested on: NSCs of Fmr1 KO and wildtype mice; experiment: In vivo NSC activation in the adult dentate gyrus (GFP+GFAP+MCM2+); design: species or system mouse; conditions: 10 mg/kg every other day, 5 injections over 9 days
# Procedure: (§1) All animal procedures were performed according to protocols approved by the University of Wisconsin-Madison Care and Use Committee. All mice were on C57B/L6 genetic background. The Fmr1 KO/Nestin-GFP mice (Fmr1−/y::Nestin-GFP) were created by crossing female Fmr1 heterozygous KO mice (Fmr1+/−) (59) with homozygous Nestin-GFP transgenic males (60). Generation of FMRP inducible conditional mutant mice (Fmr1loxP/y::Nestin-CreERT2::Rosa26-tdt) and tamoxifen injections to induce recombination were performed as described (12). To induce recombination, mice (6-weeks old) received Tamoxifen (Sigma-Aldrich) daily for 5 d (160 mg/kg) as described (12). Nutlin-3 (10 mg/kg) was given to 7-8 week-old mice or 20-week old mice through IP injections every other day for 5 injections and sacrificed at either 24 hours, 4 weeks, 12, or 20 weeks after the last injection. […]
# The total numbers of GFP^+ or tdT^+ cells in the dentate gyms of each animal were counted on a Zeiss Apotome microscope using unbiased stereology (StereoInvestigator software, MBF Biosciences, Inc). […] Dentate gyms volume was measured using StereoInvestigator as described (11, 12). […] Briefly, at least 50 GFP^+ or BrdU^+ cells in the dentate gyms were randomly selected, and their colocalization with cell-lineage markers was determined using a Nikon A1 confocal microscope and quantified using ImageJ software (NIH).
# Fmr1 KO mice = experiment: Novel location test (NLT); format: in vivo, mouse; conditions: for spatial memory deficits in the novel location test, long-term effect: tested at 24 weeks old
# Procedure: All animal procedures were performed according to protocols approved by the University of Wisconsin-Madison Care and Use Committee. All mice were on C57B/L6 genetic background. The Fmr1 KO/Nestin-GFP mice (Fmr1−/y::Nestin-GFP) were created by crossing female Fmr1 heterozygous KO mice (Fmr1+/−) (59) with homozygous Nestin-GFP transgenic males (60). Generation of FMRP inducible conditional mutant mice (Fmr1loxP/y::Nestin-CreERT2::Rosa26-tdt) and tamoxifen injections to induce recombination were performed as described (12). To induce recombination, mice (6-weeks old) received Tamoxifen (Sigma-Aldrich) daily for 5 d (160 mg/kg) as described (12). Nutlin-3 (10 mg/kg) was given to 7-8 week-old mice or 20-week old mice through IP injections every other day for 5 injections and sacrificed at either 24 hours, 4 weeks, 12, or 20 weeks after the last injection. For NSC differentiation analysis, mice also received four BrdU injections (100 mg/kg) between day 2 and 3 of Nutlin-3 injections. To induce recombination in FMRP inducible conditional mutant mice (Fmr1^loxP/y::Nestin-CreER^T2::Rosa26-tdt) mice, mice 6-weeks old male mice received Tamoxifen (Sigma-Aldrich) daily for 5 days (160 mg kg-1 i.p., 30 mg ml^−1 in 10% ethanol mixed with sunflower oil, SigmaAldrich) based on a published procedure (13). BrdU (Sigma-Aldrich, B5002) was made in a concentration of 20 mg/mL in PBS. Nutlin-3 (Nt3, Cayman Chemical, 10004372) was made in a concentration of 100 mg/mL in dimethyl sulfoxide (DMSO).
# This test measures spatial memory through an evaluation of the ability of mice to recognize the new location of a familiar object with respect to spatial cues. The experimental procedure was performed as previously described (65). The mice were exposed to 2 identical objects for 6 minutes during the acquisition phase 3 times and tested at 3 minutes later. Object preference was evaluated during this session. During the trial session, one of the objects was moved to a novel location, and the mice were allowed to explore the objects for 6 minutes, and the total time spent exploring each object was measured. Exploration was considered as any investigative behavior (i.e., head orientation, sniffing occurring within <1.0 cm) or deliberate contact occurring with each object. The discrimination index was calculated as the percentage of time spent investigating the object in the new location minus the percentage of time spent investigating the object in the old location: discrimination index=(Novel Location exploration time/total exploration time×100)−(old Location exploration time/total exploration time×100). All experiments were videotaped and scored by scientists who were blinded to experimental conditions.
# [2] = tested on: Fmr1 KO and wildtype NPCs; experiment: Cell death analysis (PI/Hoechst, CellTiter-Glo viability) of NPCs; format: cell-based, mouse; conditions: 2 μM Nutlin-3
# Text: Three different methods were used to assay cell death. Fluorescein isothiocyanate and propidium iodide (Annexin V-FITC Apoptosis Detection Kit, Sigma, #APOAF) were used to assess NSC apoptosis. Intact cells were Annexin V^−PI^−. Early and late apoptotic cells were Annexin V^+PI^− and Annexin V^+PI^+, respectively. Necrotic cells were Annexin V−PI+. The number of early apoptotic cells (Annexin V^+PI^−; Phase II) and late apoptotic cells (Annexin V^+PI^+, Phase I) were used to calculate the percentage of apoptotic cells. In a second method, propidium iodide (1 mg/mL) and […] (1 mM) were added to cultured cells for 15 min, followed by high content imaging analysis (Oppretta, GE) to quantify the percentage of Hoechst positive (all) cells that are PI positive (dead) cells. In the third method, Cell viability was measured using CellTiter-Glo Luminescent Cell Viability Assay (Promega). 2 μM Nutlin-3 (Nt3, Selleckchem, 51061) was added to proliferating aNPCs at 6 hours post-plating. Cells were then harvested 24 hours later with CellTiter-Glo buffer at room temperature. Signal intensity was immediately measured using a Glomax plate reader (Promega) according to manufacturer's instruction.
# [3] = tested on: Fmr1 KO and wildtype NPCs; experiment: Differentiation assay of cultured NPCs (Tuj1 neurons, GFAP astrocytes); format: cell-based, mouse; conditions: 4 days
# Procedure: NPCs were isolated from the dentate gyms of 8 to 10-week-old male Fmr1 KO mice and wild-type (wildtype) littermate controls based on our published methods (12, 64). Independently isolated cells serve as biological replicates. Proliferation and differentiation of NPCs was analyzed as described (11, 12, 61). We used only early passage cells (between passage 4 and 10) and only the same passage numbers of wildtype and Fmr1 KO cells. For each experiment, triplicate wells of cells were analyzed, and results were averaged as one data point (n=1). At least 3 independent biological replicates were used (n=3) for statistical analyses.
# Proliferation and differentiation of aNPCs were analyzed using our published methods (Guo et al., Nature Med. (2011); Guo et al., Neuron 70, 924-938 (2011); Luo et al., PLoS Genet 6 (2010); Liu et al., Cell Stem Cell 6 (2010)). We used only early passage cells (between passage 4 and 10) and only the same passage numbers of wild type (WT) and Fmr1 KO cells. For each experiment, triplicate wells of cells were analyzed, and results were averaged as one data point (n=1). At least 3 independent experiments (n=3) were performed and used for statistical analyses for each analysis. […] For the differentiation assay, at 24 h post-plating, cells were changed into differentiation medium, Neurobasal A, containing 5 μM forskolin (Sigma-Aldrich, F-6886) and 1 μM retinoic acid (Sigma-Aldrich, R-2625) for 4 d, followed by fixation with 4% paraformaldehyde for 30 min, and then washed with Dulbecco's Phosphate Buffered Saline (DPBS), pH 7.4 for 30 min. Immunocytochemistry staining was carried out as described (Guo et al., Nature Med. (2011); Guo et al., Neuron 70, 924-938 (2011); Luo et al., PLoS Genet 6 (2010); Liu et al., Cell Stem Cell 6 (2010)). Briefly, cells were preblocked using DPBS containing 5% normal goat serum (VECTOR, S-1000) and 0.1% Triton X-100 for 30 min, followed by overnight incubation with primary antibodies: mouse anti-Tuj1 (1:1000, Promega, G712A) and rabbit anti-S100β (1:1000, Dako, Z0334).
# After washing with Dulbecco s Phosphate Buffered Saline (DPBS), cells were incubated with secondary antibodies that included goat anti-mouse 568 (1:1000, Invitrogen, A11031), goat anti-rabbit 488 (1:1000, Invitrogen, A11008) followed by counterstaining with the fluorescent nuclear dye 4′,6-diamidino-2′-phenylindole dihydrochloride (DAPI, Sigma-Aldrich, B2261). […] (VECTOR, H-1000), the numbers of Tuj1, GFAP-positive cells were quantified using an Olympus BX51 microscope equipped with a MicroFire digital camera (Optronics) and a motorized stage using a 20× objective lens. The quantification was carried out using an unbiased stereology method with assistance from StereoInvestigator software (MBF Biosciences). The percentage of differentiated cells was calculated as the number of Tuj1- or GFAP-labeled cells divided by the total number of cells stained with DAPI.
# Open field activity test = format: in vivo, mouse; conditions: wildtype and Fmr1 KO mice; Nutlin-3 10 mg/kg, 5 injections
# Procedure: as §1, with “injection. For NSC differentiation analysis, mice also received four BrdU injections (100 mg/kg) between day 2 and 3 of Nutlin-3 injections.” for “injection.”
# Mice were subjected to open field testing for evaluation of locomotor activity and general anxiety. Activity was recorded at 10-min intervals for total 30 min by means of a computer-operated tracking system (Omnitech Electronics Inc, USA) Total distance moved, and ratio of entry time into the Centre and periphery of arena were measured.
# [4] = Fmr1 KO NPCs, 1 μM MK2206, 2 μM Nutlin-3, 1 μM RG7112
# [5] = wildtype NPCs, 1 μM MK2206, 2 μM Nutlin-3
smiles,measurement,setting,value
COc1ccc(C2=N[C@@H](c3ccc(Cl)cc3)[C@@H](c3ccc(Cl)cc3)N2C(=O)N2CCNC(=O)C2)c(OC(C)C)c1 [Nutlin-3],NSC activation (percentage of activated NSCs among total NSCs),[1]; Fmr1 KO mice,specifically reduced NSC activation in Fmr1 KO mice to wildtype levels
same,NSC activation (percentage of activated NSCs among total NSCs),[1]; wildtype mice,no significant effect on wildtype mice
same,"spatial memory deficits in the novel location test, long-term effect",Fmr1 KO mice; Fmr1 KO mice treated at 8 weeks old,long-term effects to fully rescue spatial memory deficits
same,spatial memory deficits in the novel location test,"Fmr1 KO mice; Fmr1 KO mice treated at 20 weeks old (middle aged), 24-weeks-old at test",fully rescued spatial memory deficits
same,performance on the novel location test (discrimination index),"Fmr1 KO mice; Fmr1 KO mice, treated as young adults, tested 4 weeks later",rescued performance
same,"spatial memory deficits in the novel location test, long-term effect",Fmr1 KO mice; Fmr1 conditional KO mice treated at 8 weeks old,long-term effects to fully rescue spatial memory deficits
same,performance on the novel location test (discrimination index),"Fmr1 KO mice; wildtype mice, tested 4 weeks after treatment",no significant effect on wildtype mice
same,cell death and survival,[2]; Fmr1 KO NPCs,did not exhibit significant effects on cell death and survival
same,cell death and survival,[2]; wildtype NPCs,did not exhibit significant effects on cell death and survival
same,astroglial differentiation (GFAP+),[3]; [4],specifically rescued astroglial differentiation phenotypes
same,neuronal differentiation (Tuj1+),[3]; [4],rescued neuronal differentiation phenotypes
same,astroglial differentiation (GFAP+),[3]; [5],without a significant effect on wildtype NPCs
same,neuronal differentiation (Tuj1+),[3]; [5],without a significant effect on wildtype NPCs
same,"locomotor activity and anxiety (total distance, center/periphery entry ratio)",Open field activity test,no significant effect
